Results from PubChem BioAssay (NCI).
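A five-concentration, 48-hour dose response in 96-well plates underlies each endpoint, interpolated linearly between surrounding concentrations. TGI: concentration producing complete growth inhibition.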

Tests used:
Assay in all cases: inhibition of tumour cell growth, NCI panel, 48 h
MCF7 breast = test system: MCF7 breast
KM12 colon = test system: KM12 colon
786-0 renal = test system: 786-0 renal
IGROV1 ovarian = test system: IGROV1 ovarian
OVCAR-5 ovarian = test system: OVCAR-5 ovarian
NCI-H522 lung = test system: NCI-H522 lung
HOP-92 NSCLC = test system: HOP-92 NSCLC
TK-10 renal = test system: TK-10 renal
SN12C renal = test system: SN12C renal
NCI-H226 lung = test system: NCI-H226 lung
SF-268 CNS = test system: SF-268 CNS
HCC-2998 colon = test system: HCC-2998 colon
SR leukemia = test system: SR leukemia
SW-620 colon = test system: SW-620 colon
BT-549 breast = test system: BT-549 breast
NCI-H460 lung = test system: NCI-H460 lung
NCI/ADR-RES ovarian = test system: NCI/ADR-RES ovarian
HS 578T breast = test system: HS 578T breast
SK-MEL-2 melanoma = test system: SK-MEL-2 melanoma

SMILES	TGI (MCF7 breast)	TGI (KM12 colon)	TGI (786-0 renal)	TGI (IGROV1 ovarian)	TGI (OVCAR-5 ovarian)	TGI (NCI-H522 lung)	TGI (HOP-92 NSCLC)	TGI (TK-10 renal)	TGI (SN12C renal)	TGI (NCI-H226 lung)	TGI (SF-268 CNS)	TGI (HCC-2998 colon)	TGI (SR leukemia)	TGI (SW-620 colon)	TGI (BT-549 breast)	TGI (NCI-H460 lung)	TGI (NCI/ADR-RES ovarian)	TGI (HS 578T breast)	TGI (SK-MEL-2 melanoma)
C[n+]1ccc(/C2=C3\C=CC(=N3)/C(c3cc[n+](C)cc3)=c3/cc/c([nH]3)=C(\c3cc[n+](C)cc3)C3=N/C(=C(/c4cc[n+](C)cc4)C4C=CC2N4)C=C3)cc1	> 100 µM	> 100 µM	> 100 µM	> 100 µM	> 100 µM	> 100 µM	> 100 µM	> 100 µM	> 100 µM	> 100 µM	> 100 µM	> 100 µM	> 32.9 µM	> 100 µM	> 100 µM	> 100 µM	> 100 µM	> 100 µM	–
COC1/C=C/C(C)C(C(C)C(OC)C(C)CCC(=O)C(C)C(C/C=C/N(C)C=O)OC)OC(=O)C=CC2OC2(C)CC(OC)C(OC)C2=CC(=O)O[C@@H](C(C)C(OC)CC(OC)/C=C/C(C)C(O)C1)[C@H]2O (some centres undefined)	> 0.286 µM	–	0.0176 µM	0.00369 µM	0.0464 µM	0.0296 µM	0.0235 µM	0.0304 µM	0.0342 µM	0.0164 µM	0.0186 µM	0.0584 µM	–	–	0.0907 µM	> 0.351 µM	0.263 µM	0.0351 µM	0.0446 µM
O=C1OCC2OC(=O)c3cc(O)c(O)c(O)c3-c3c(O)c(O)c(O)c4c3C(=O)OC(C2OC(=O)c2cc(O)c(O)c(O)c2-c2c1cc(O)c(O)c2O)C1OC(=O)c2c-4c(O)c(O)c(O)c2[C@@H]1C(O)C(O)C(O)C(O)CO (some centres undefined)	17.6 µM	52.3 µM	34.7 µM	40.6 µM	33 µM	39.7 µM	45.8 µM	–	32.6 µM	42.6 µM	47.4 µM	64.2 µM	> 100 µM	44.5 µM	55.2 µM	39.5 µM	66.1 µM	70.3 µM	48.3 µM
CCCCn1c(N)c(-c2nc3ccccc3o2)sc1=S	> 100 µM	> 100 µM	33 µM	44.1 µM	53.6 µM	31.5 µM	> 100 µM	39.3 µM	54.3 µM	43.1 µM	74.4 µM	> 100 µM	> 100 µM	–	75.2 µM	42.6 µM	46.8 µM	77.6 µM	37.7 µM
CC(C)(C)OC(=O)N/N=C(/N)Cc1ccc(Cl)cc1	> 100 µM	> 100 µM	> 100 µM	> 100 µM	> 100 µM	> 100 µM	–	> 100 µM	> 100 µM	> 100 µM	> 100 µM	> 100 µM	> 100 µM	> 100 µM	> 100 µM	> 100 µM	> 100 µM	> 100 µM	> 100 µM
COc1ccc(C2SCC(=O)N2c2ccc(-c3ccc(-n4c(-c5ccccc5)nc5ccccc5c4=O)cc3)cc2)cc1OC (centres undefined)	> 100 µM	28.3 µM	> 100 µM	> 100 µM	–	–	> 100 µM	83.9 µM	> 100 µM	> 100 µM	> 100 µM	–	> 100 µM	> 100 µM	51.1 µM	> 100 µM	> 100 µM	> 100 µM	–
CCOC(=O)C1=NOC2(C=C(Br)C(=O)C(Br)=C2)C1	11.1 µM	29.7 µM	1.76 µM	20.6 µM	12.6 µM	1.34 µM	3.56 µM	2.27 µM	19.6 µM	52.9 µM	29.1 µM	3.22 µM	–	2.77 µM	17.8 µM	15 µM	> 26.6 µM	68.1 µM	15 µM
CC1=NNC(=O)C1C1CC(c2c[nH]c3ccccc23)=NNC1=O (centres undefined)	–	> 100 µM	> 100 µM	> 100 µM	> 100 µM	> 100 µM	> 100 µM	> 100 µM	> 100 µM	> 100 µM	> 100 µM	–	–	> 100 µM	> 100 µM	> 100 µM	> 100 µM	> 100 µM	> 100 µM
C/C(=N\Nc1ccc([N+](=O)[O-])cc1[N+](=O)[O-])c1sc(-n2nc(-c3ccccc3)cc2-c2ccccc2)nc1C	> 100 µM	> 100 µM	> 100 µM	> 100 µM	> 100 µM	> 100 µM	77.4 µM	> 100 µM	> 100 µM	> 100 µM	> 100 µM	> 100 µM	46.8 µM	> 100 µM	> 100 µM	> 100 µM	69.8 µM	> 100 µM	–
Cc1ccccc1-n1c(=O)c2ncn(C3CCCO3)c2n(-c2ccccc2C)c1=S (centres undefined)	> 100 µM	> 100 µM	> 100 µM	> 100 µM	> 100 µM	> 100 µM	> 100 µM	> 100 µM	> 100 µM	> 100 µM	> 100 µM	> 100 µM	–	> 100 µM	> 100 µM	–	> 100 µM	> 100 µM	> 100 µM
O=C(NC1=C(Cl)C(=O)c2ccccc2C1=O)c1ccc(F)cc1	17.1 µM	12.5 µM	> 100 µM	11.5 µM	16.5 µM	1.84 µM	3.34 µM	14.6 µM	14.5 µM	8.37 µM	38.9 µM	15.1 µM	> 100 µM	2.51 µM	14.7 µM	10.6 µM	14.8 µM	64.7 µM	–
CN1c2ccccc2C(=O)NC12CCN(CCCC(=O)c1ccc(F)cc1)CC2	> 100 µM	> 100 µM	> 100 µM	> 100 µM	> 100 µM	> 100 µM	> 100 µM	–	> 100 µM	> 100 µM	88.9 µM	40.3 µM	> 100 µM	> 100 µM	> 100 µM	–	> 100 µM	> 100 µM	> 100 µM
NC(N)=NCC[C@H](NC(=O)OCCCCCn1ccc(=O)[nH]c1=O)C(=O)O	> 100 µM	> 100 µM	> 100 µM	–	> 100 µM	–	> 100 µM	> 100 µM	> 100 µM	> 100 µM	> 100 µM	> 100 µM	–	> 100 µM	> 100 µM	> 100 µM	> 100 µM	> 100 µM	> 100 µM
N#Cc1sc2c(c1OC(=O)c1ccccc1)c(=O)n(-c1ccccc1)c(=S)n2-c1ccccc1	43.6 µM	43.5 µM	85.1 µM	45.7 µM	–	29.8 µM	–	> 100 µM	77.7 µM	40.8 µM	> 100 µM	68.9 µM	> 100 µM	> 100 µM	> 100 µM	> 100 µM	49.3 µM	52.2 µM	80.3 µM
Cn1c(=O)c2c(nc3n2CC(=O)N3CCCCl)n(C)c1=O	> 100 µM	> 100 µM	> 100 µM	> 100 µM	> 100 µM	–	> 100 µM	> 100 µM	> 100 µM	> 100 µM	> 100 µM	> 100 µM	–	> 100 µM	> 100 µM	> 100 µM	> 100 µM	> 100 µM	> 100 µM
CNC(=O)C1(N)c2ccccc2C=Cc2ccccc21	> 100 µM	> 100 µM	> 100 µM	> 100 µM	> 100 µM	> 100 µM	> 100 µM	> 100 µM	> 100 µM	> 100 µM	> 100 µM	–	> 100 µM	> 100 µM	> 100 µM	–	> 100 µM	> 100 µM	> 100 µM
CCC1(c2ccccc2)C(=O)N=C(c2ccccc2)N1CCc1ccccc1 (centres undefined)	> 100 µM	> 100 µM	> 100 µM	> 100 µM	> 100 µM	> 100 µM	> 100 µM	> 100 µM	> 100 µM	> 100 µM	> 100 µM	> 100 µM	> 100 µM	> 100 µM	> 100 µM	–	> 100 µM	> 100 µM	> 100 µM
O=[N+]([O-])c1cccc2nnccc12	> 100 µM	> 100 µM	50.4 µM	> 100 µM	> 100 µM	20.6 µM	71.4 µM	> 100 µM	> 100 µM	58 µM	> 100 µM	–	–	> 100 µM	> 100 µM	42.2 µM	> 100 µM	> 100 µM	> 100 µM
CCc1nn(CN2CCOCC2)c(=S)n1/N=C/c1ccc(-c2ccc(Cl)cc2)o1	> 100 µM	> 100 µM	> 100 µM	> 100 µM	> 100 µM	> 100 µM	> 100 µM	> 100 µM	–	> 100 µM	> 100 µM	–	> 100 µM	> 100 µM	> 100 µM	> 100 µM	> 100 µM	> 100 µM	> 100 µM
COc1ccc(CC2(O)C3CC4CCC2C4C3)cc1 (centres undefined)	> 100 µM	> 100 µM	> 100 µM	> 100 µM	> 100 µM	> 100 µM	> 100 µM	> 100 µM	> 100 µM	> 100 µM	> 100 µM	–	> 100 µM	> 100 µM	> 100 µM	> 100 µM	> 100 µM	> 100 µM	> 100 µM
O=c1[nH]cc(-c2c[nH]c3ccccc23)nc1-c1c[nH]c2ccccc12	54.7 µM	> 100 µM	23.5 µM	14.6 µM	27.6 µM	20.3 µM	33.3 µM	30.5 µM	33.4 µM	–	27.9 µM	21.6 µM	–	18.1 µM	28.7 µM	43.4 µM	49.8 µM	39.9 µM	34.2 µM
Cc1cc(C)c(-n2[nH]c(=O)n(C)c2=O)c(C)c1	> 100 µM	> 100 µM	> 100 µM	> 100 µM	> 100 µM	> 100 µM	–	> 100 µM	> 100 µM	> 100 µM	> 100 µM	> 100 µM	> 100 µM	> 100 µM	> 100 µM	> 100 µM	> 100 µM	> 100 µM	> 100 µM
CCC(CCCN)Nc1cc(OC)cc2c(C)ccnc12 (centres undefined)	29.3 µM	29 µM	28.8 µM	36.6 µM	32.5 µM	–	30.6 µM	31.7 µM	53.5 µM	28.3 µM	31.6 µM	44.9 µM	31.6 µM	36.9 µM	28.5 µM	32.3 µM	76.4 µM	27.6 µM	41.5 µM
O=C1CCCN1C(=O)CS(=O)(=O)c1ccccc1	–	> 100 µM	> 100 µM	> 100 µM	> 100 µM	> 100 µM	> 100 µM	> 100 µM	> 100 µM	> 100 µM	> 100 µM	> 100 µM	> 100 µM	> 100 µM	> 100 µM	> 100 µM	> 100 µM	> 100 µM	> 100 µM
O=C(O)C12C3CCC(CC3)C1(C(=O)O)C1CCC2C1 (centres undefined)	> 100 µM	> 100 µM	> 100 µM	> 100 µM	> 100 µM	> 100 µM	–	> 100 µM	> 100 µM	> 100 µM	> 100 µM	> 100 µM	> 100 µM	> 100 µM	> 100 µM	> 100 µM	> 100 µM	> 100 µM	> 100 µM
CO/C(=N\N=C\c1ccc(OC)c(OC)c1)c1ccncc1	> 10 µM	> 10 µM	> 10 µM	> 10 µM	–	–	> 10 µM	> 10 µM	> 10 µM	> 10 µM	> 10 µM	> 10 µM	> 10 µM	> 10 µM	> 10 µM	> 10 µM	> 10 µM	> 10 µM	–
